Source: patent US12138256B2, “Treatment of cardiopulmonary disorders” (Bayer Aktiengesellschaft, priority 2021, dated 2024)
“And” between values parts separate entries of the source, which are not always exact repeats. Identical values can stand only once. Blank lines part the entries; values can stand above or below the molecule they belong to.

Tests used:
[1] = tested on: acetylcholine-induced bronchospasm; test: Bronchorelaxation in vivo: acetylcholine-induced bronchoconstriction in Brown Norway rats, RL and Cdyn (C-3.2); set-up: species or system rat; settings: inhaled 60 minutes before provocation; tiotropium 1 μg/kg; comparative example 11 1, 10 and 100 μg/kg
Procedure: The bronchoconstriction model (see Hoymann H G. Lung function measurements in rodents in safety pharmacology studies. Front Pharmacol 2012; 3:156) used Male Brown Norway rats (Charles River, Sulzfeld, Germany; 10-12 weeks old) randomized to three treatment groups (comparative example 11, 1 μg/kg, 10 μg/kg, and 100 μg/kg; n=12-13), one positive control group (tiotropium 1 μg/kg; n=12), and one vehicle control group (n=17). Animals were treated with the inhaled test compounds 60 minutes before provocation. Comparative example 11, vehicle, or tiotropium were aerosolized using a micro feeding system and a dispersion nozzle operated with pressurized air. The aerosol concentration was determined by filter sampling with gravimetrical analysis and monitored continuously by a photometer. The lung-deposited doses were assessed from the inhalation dose (Raabe O G, Al-Bayati M A, Teague S V, Rasolt A. Regional Deposition of Inhaled Monodisperse Coarse and Fine Aerosol Particles in Small Laboratory Animals. The Annals of Occupational Hygiene 1988; 32:53-63.). […] After reaching a steady state in respiration, lung function of the spontaneously breathing animal was recorded as baseline values for ≥2 minutes; amongst other parameters, lung resistance (=RL) and dynamic compliance (=Cdyn) were used to assess bronchoconstriction. […]

[2] = tested on: isolated Langendorff-perfused rat heart; test: Isolated perfused heart according to Langendorff: perfusion pressure and wash-out score (C-1.2); settings: comparative example 11 300 nmol/l, others 100 nmol/l, n=6
Procedure: Male Wistar rats (strain HsdCpb:WU) with a body weight of 200-250 g were anaesthetized with Narcoren® (100 mg/kg). The thorax was opened and the heart was then exposed, excised and connected to a Langendorff apparatus by placing a cannula into the aorta. The heart was perfused retrogradely at 9 ml/min at constant flow with a Krebs-Henseleit buffer solution (gassed with 95% O2 and 5% CO2, pH 7.4, 35° C.; composition in mmol/l: NaCl 118; KCl 3; NaHCO3 22; KH2PO4 1.2; MgSO4 1.2; CaCl2 1.8; Glucose 10; Na pyruvate 2). A pressure transducer registered the perfusion pressure in the perfusion system. The left ventricular pressure (LVP) was measured using a second pressure transducer connected to a water-filled balloon which was inserted into the left ventricle via the left atrium. The end diastolic pressure was initially set to 8 mm Hg by adjusting the volume of the balloon. The hearts were spontaneously beating. The signals from the pressure transducer were amplified, registered by a personal computer (Powerlab Chart software, ADInstruments).
Then the hearts were perfused for a further 120 min without the test substance (wash-out phase). The reversibility of the effect (wash-out score) was calculated as a percentage of the PP recovery after 60 min of washout related to the maximum drop of PP induced by the test compound. The wash-out score obtained in this manner was taken as a measure for the residence time of the test substance at the site of action.

[3] = tested on: thromboxane analog U46619 induced PAH in minipigs; test: PAH minipig model: comparison with and on top of standard of care (bosentan, sildenafil, riociguat); assay type: in vivo, Göttingen minipig
From the text: Efficacy of inhaled comparative example 11 was compared with systemically applied bosentan, sildenafil and riociguat (see FIG. 53a) in the PAH minipig model. […] Therefore inhaled application of comparative example 11 offers clear benefits as systemic effects are avoided, compared to standard of care.

[4] = Caco-2 permeability test (C-5.1); assay type: in vitro ADME, human; settings: human, Caco-2 (2 μM)
Procedure: The in vitro permeation of a test compound across a Caco-2 cell monolayer is a well-established assay system to predict the permeability from the gastro-intestinal tract (1). The permeability of the compounds of the present invention in such Caco-2 cells was determined as described below:
Human caco-2 cells were seeded on 24-well insert plates and were allowed to grow for 14-16 days. For permeability studies, the test compounds were dissolved in DMSO and diluted to the final test concentration of 2 μM with transport buffer [Hanks' Buffered Salt Solution, Gibco/Invitrogen, further supplemented with glucose and HEPES]. For determination of the apical to basolateral permeability (PappA-B), the test compound solution was added to the apical side of the cell monolayer and transport buffer to the basolateral side of the monolayer; for determination of the basolateral to apical permeability (PappB-A), the test compound solution was added to the basolateral side of the cell monolayer and transport buffer to the apical side of the monolayer. Samples were taken from the donor compartment at the beginning of the experiment to confirm mass balance. After an incubation of 2 h at 37° C., samples were taken from both compartments. Samples were analyzed by LC-MS/MS, and the apparent permeability coefficients were calculated. Lucifer Yellow permeability was assayed for each cell monolayer to ensure cell monolayer integrity, and the permeability of Atenolol (low permeability marker) and Sulfasalazine (marker for active excretion) was determined for each batch as quality control.

[5] = Protein binding via ultrafiltration assay (comparative example 2); assay type: in vitro ADME
From the text: For this assay, filter membranes of 30 kDa pore size were used to separate plasma and protein free ultrafiltrate. The driving force for filtration was applied by centrifugation. Prior to protein binding studies, the adsorption (recovery) of the test compound to the ultra-filtration device and the ability of the test compound to pass the filter membrane was checked by filtration of the test compound dissolved in buffer at four concentrations. Sufficient stability of the test compound and an almost complete recovery (≥90% of the actual amount of compound used for the experiment) was a prerequisite for the use of the ultrafiltration method. The amount of organic solvent added to the plasma may not exceed 2% of the total incubation volume. Blood samples were collected in heparinized tubes either pooled (all species except human and monkey) or individually (human and monkey) and were used within 24 h for incubation experiments in blood. Plasma was prepared by centrifugation of the heparinized blood samples. Plasma was stored at −15° C. until use. Plasma stability, Compound recovery, unspecific binding to the membrane and the test device as well as partitioning between blood cells and plasma were controlled. The substance-associated radioactivity was determined by liquid scintillation counting. With this analytical method, it is not possible to distinguish between unchanged substance and radioactive metabolites. For details of the radioanalytical methods and the work up of the samples see Goeller et al. (3). A description of the ultrafiltration method in general was published by Zhang et al. In 2012 (4).

[6] = tested on: pulmonary vascular resistance (PVR); settings: cited from earlier work
[7] = tested on: thromboxane analog U46619 induced PAH in minipigs; test: Haemodynamics (PAP, BP) in the anesthetized thromboxane challenged PAH minipig after inhaled (nebulized) application (C-2.1); assay type: in vivo, Göttingen minipig; settings: inhaled; Ventavis 10 μg/kg nominal dose; comparative example 11 10, 30 and 100 μg/kg nominal dose; 240 min observation interval
Method in brief: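 Anesthetized, ventilated Göttingen minipigs (2-6 kg) given continuous infusion (0.3-0.75 μg/kg/min) to raise mean PAP above 25 mmHg, dosing starting after a 30 min plateau. Compound in 1% DMSO/0.2% citric acid, pH 8, nebulized via Aeroneb Pro into the inspiratory arm (~7 min; stock 300 μg/kg). PAP by Swan-Ganz catheter, BP via carotid catheter.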

[8] = tested on: thromboxane analog U46619 induced PAH in minipigs with ODQ or L-NAME pretreatment; test: PAH minipig model under oxidative stress / low NO (pretreatment by ODQ or L-NAME); assay type: in vivo, Göttingen minipig; set-up: PAP / BP: unit not given beside the values; settings: for BP / PAP: Ventavis 10 μg/kg nominal dose inhaled
Procedure: To simulate conditions of oxidative stress or low NO concentrations as assumed to be present in different cardiovascular disorders, comparative example 11 was evaluated with and without pretreatment by ODQ (inhibitor of sGC) or L-NAME (NOS inhibitor). […] In contrast, the effects of Ventavis® under conditions of oxidative stress or low NO concentrations were not enhanced. In addition, also under these pathophysiological conditions the duration of action of comparative example 11 was much longer compared to Ventavis®.

[9] = Riociguat 3 μg/kg/h systemically applied, % change per animal

SMILES: C[N+]1(C)[C@@H]2C[C@@H](OC(=O)C(O)(c3cccs3)c3cccs3)C[C@H]1[C@@H]1O[C@@H]12 [tiotropium, reference compound]
- bronchodilatory efficacy (RL) [1]: inhibited acetylcholine-induced bronchospasm

- efflux ratio at 2 h, 2 μM [4]: 11 ± 3.3
- Papp A→B at 2 h, 2 μM ([4]; concentration per compound 2.0 or 2.4 μM, read-out: Papp A-B (mean +/− SD)): 3.5 ± 0.84 ×10⁻⁶ cm/s
- Papp B→A at 2 h, 2 μM ([4]; concentration per compound 2.0 or 2.4 μM, read-out: Papp B-A (mean +/− SD)): 36.7 ± 7.5 ×10⁻⁶ cm/s
- fraction unbound ([5]; Dog Beagle plasma): 0.171
- fraction unbound ([5]; Human (male) plasma): 0.0497
- fraction unbound ([5]; Rat Wistar plasma): 0.157
SMILES: COC(=O)N(C)c1c(N)nc(-c2nn(Cc3ccccc3F)c3ncccc23)nc1N [comparative example 2, Methyl-4,6-diamino-2-[1-(2-fluorobenzyl)-1H-pyrazolo[3,4-b]pyridine-3-yl]-5-pyrimi-dinyl(methyl)carbamate, reference compound]
- wash-out score ([2]; PP recovery after 60 min of washout related to maximum drop of PP): 98%
- effect on perfusion pressure (PP) [2]: pronounced reduction of perfusion pressure
- BP decrease % [3, 9]: −0.3% and −8.8% and −10.9%
- PAP decrease % [3, 9]: −9.1% (2×) and −16.8%
- effects on PAP and BP ([3]; bosentan 1 mg/kg, sildenafil 300 μg/kg/h, riociguat 3 μg/kg/h systemically, comparative example 11 30 and 100 μg/kg inhaled): decreases in both PAP and BP

SMILES: CCCCC[C@H](O)CC[C@@H]1[C@H]2Cc3cccc(OCC(=O)O)c3C[C@H]2C[C@H]1O [Treprostinil]
- mean change in PVR from baseline ([6]; single administration, historical comparison): −30%

SMILES: CC#CCC(C)[C@H](O)/C=C/[C@@H]1[C@H]2C/C(=C/CCCC(=O)O)C[C@H]2C[C@H]1O (stereo partly shown) [Ventavis, reference compound]
- duration of action [7]: about 40 min
- BP ([8]; L-NAME pretreatment, Time 70): 105.0 and 133.0 and 125.0
- PAP ([8]; L-NAME pretreatment, Time 70): 31.7 and 27.4 and 28.7
- BP ([8]; L-NAME pretreatment, Time 80): 106.0 and 131.0 and 123.0
- PAP ([8]; L-NAME pretreatment, Time 80): 41.2 and 33.5 and 29.7
- BP ([8]; L-NAME pretreatment, Time 90): 102.0 and 124.0 and 121.0
- PAP ([8]; L-NAME pretreatment, Time 90): 42.2 and 37.9 and 32.1
- BP ([8]; L-NAME pretreatment, Time 100): 101.0 and 124.0 and 117.0
- PAP ([8]; L-NAME pretreatment, Time 100): 41.5 and 39.6 and 38.9
- BP ([8]; L-NAME pretreatment, Time 110): 101.0 and 125.0 and 114.0
- PAP ([8]; L-NAME pretreatment, Time 110): 41.5 and 41.0
- BP ([8]; ODQ pretreatment, Time 70): 97.0 and 103.0 and 92.0
- PAP ([8]; ODQ pretreatment, Time 70): 33.6 and 26.4 and 25.9
- BP ([8]; ODQ pretreatment, Time 80): 98.0 and 105.0 and 92.0
- PAP ([8]; ODQ pretreatment, Time 80): 37.4 and 32.8 and 32.1
- BP ([8]; ODQ pretreatment, Time 90): 100.0 and 104.0 and 92.0
- PAP ([8]; ODQ pretreatment, Time 90): 38.5 and 37.5 and 38.2
- BP ([8]; ODQ pretreatment, Time 100): 101.0 and 104.0 and 93.0
- PAP ([8]; ODQ pretreatment, Time 100): 38.8 and 40.6 and 39.2
- BP ([8]; ODQ pretreatment, Time 110): 103.0 and 94.0
- PAP ([8]; ODQ pretreatment, Time 110): 39.3 and 39.5 and 40.0
- BP ([8]; without pretreatment, Time 70): 107.0 and 109.0 and 116.0
- PAP ([8]; without pretreatment, Time 70): 26.1 and 28.2 and 29.6
- BP ([8]; without pretreatment, Time 80): 102.0 and 110.0 and 113.0
- PAP ([8]; without pretreatment, Time 80): 34.7 and 36.7 and 37.4
- BP ([8]; without pretreatment, Time 90): 99.0 and 109.0 and 111.0
- PAP ([8]; without pretreatment, Time 90): 38.9 and 41.2
- BP ([8]; without pretreatment, Time 100): 98.0 and 106.0 and 108.0
- PAP ([8]; without pretreatment, Time 100): 37.9 and 39.2 and 41.9
- BP ([8]; without pretreatment, Time 110): 95.0 and 105.0 and 106.0
- PAP ([8]; without pretreatment, Time 110): 38.4 and 39.5 and 42.2
- effect on PAP after pretreatment of ODQ or L-NAME ([8]; inhaled, comparative example 11 30 μg/kg ND, Ventavis 10 μg/kg nominal dose): not enhanced
- duration of action on haemodynamics (PVR) in clinical studies ([6]; inhaled, patients): about 60 min
